Molecules are shown by their SMILES.

For assay [1], the target named is T1, Human Polymorphonuclear Leukocyte Elastase (Homo sapiens, UniProt P08246).
T1 construct: Crude extract of human polymorphonuclear leukocytes (PMN) containing elastase activity; from tissue; host or cells: human polymorphonuclear leukocytes (crude extract)
T1 sequence (P08246 30-267): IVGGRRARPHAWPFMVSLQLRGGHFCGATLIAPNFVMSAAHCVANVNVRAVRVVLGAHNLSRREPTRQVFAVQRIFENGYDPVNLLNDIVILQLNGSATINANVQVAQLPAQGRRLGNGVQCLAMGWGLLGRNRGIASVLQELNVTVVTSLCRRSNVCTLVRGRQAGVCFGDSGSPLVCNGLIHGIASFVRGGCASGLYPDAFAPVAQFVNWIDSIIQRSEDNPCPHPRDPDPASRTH
Description: Inhibition of human polymorphonuclear leukocyte elastase via hydrolysis of Boc-AAPAN or Boc-AAPVN. In kind it is biochemical. The settings on record: second order rate constant for inactivation of the enzyme; crude human PMN extract, pH 7.5; to the nearest thousand; read-out: Kobs/[I]. As for the experimental part:
Enzyme Assays for the Inhibition of Human Polymorphonuclear Leukocyte Elastase Via Hydrolysis of N-t-Boc-alanyl-alanyl-prolylalanine-p-nitroanilide (Boc-AAPAN) or N-t-Boc-alanyl-[…] (Boc-AAPVN) Reagent: • 0.05M TES (N-tris[hydroxymethyl]methyl-2-mino-ethanesulfonic acid) Buffer, pH 7.5. 0.2 mM Boc-AAPAN or Boc-AAPVN.
To prepare substrate, the solid was first dissolved in 10.0 ml DMSO. Buffer at pH 7.5 was then added to a final volume of 100 ml.
Crude extract of human polymorphonuclear leukocytes (PMN) containing elastase activity.
Inhibitors (azetidinones) to be tested dissolved in DMSO just before use.
To 1.0 ml of 0.2 mM Boc-AAPAN in a cuvette, 0.01-0.1 ml of DMSO with or without inhibitor was added. After mixing, a measurement was taken at 410 mµ to detect any spontaneous hydrolysis due to presence of test compound. 0.05 Milliliters of PMN extract was then added and the ΔOD/min at 410 mµ was measured and recorded. Beckman model 35 spectrophotometer was used.
Results were expressed to the nearest thousand k obs/I which is the second order rate constant in per mole per second for inactivation of the enzyme.
The elastase activity in the crude PMN extract may vary from one preparation to another. A control of each new batch is run, and the volume added in the assay procedure is adjusted according to activity.

Assay [2] relates to control cells expressing normal elastase. Description: Growth rate of control cells expressing normal elastase. The class given is cell-based, human. The settings on record: inhibition of NE activity. From the text: (§1) We have established a model of SCN with doxycycline-regulated expression of del.145-152 mutant NE in human promyelocytic tet-off HL-60 cells. The ratio of normal-to-mutant NE products is approximately 1:1, which is expected in SCN patients with heterozygous mutation. […] The reduced cell growth and accelerated apoptosis were also observed in response to mutNE expression. Thus, this cellular model of SCN appears to closely recapitulate the human phenotype.

The subject of assay [3] is HL-60 cells expressing the del.145-152 mutNE. As to the kind of experiment: Cell growth and myeloid differentiation of HL-60 cells expressing del.145-152 mutNE. The class given is cell-based, human. To be noted: HL-60 cells expressing del.145-152 mutNE treated with compound.
Description: as §1

Assay [4] has as its target T2, neutrophil elastase (NE) (Homo sapiens, UniProt P08246, DEL174-181).
T2 construct: The ratio of normal-to-mutant NE products is approximately 1:1; expressed in transfected cells; host or cells: human promyelocytic tet-off HL-60 cells
T2 sequence (P08246 with tags, fused parts or gaps DEL174-181): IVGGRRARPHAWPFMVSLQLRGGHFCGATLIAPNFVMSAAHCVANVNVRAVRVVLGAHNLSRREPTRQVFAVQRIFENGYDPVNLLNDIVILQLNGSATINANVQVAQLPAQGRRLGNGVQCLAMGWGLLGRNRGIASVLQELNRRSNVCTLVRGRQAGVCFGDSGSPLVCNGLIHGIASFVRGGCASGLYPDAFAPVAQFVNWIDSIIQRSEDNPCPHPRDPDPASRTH
T2 sequence (P08246 30-267): T1 sequence (P08246 30-267)
Description: NE activity in cellular SCN model (tet-off HL-60 cells expressing del.145-152 mutant NE). The class given is cell-based. To be noted: human promyelocytic tet-off HL-60 cells.
Description: as §1

As for `CCC[C@@H](NC(=O)C1C(=O)C(CC)(CC)[C@@H]1Oc1ccc(C(=O)N2CCN(C(C)C)CC2)cc1)c1ccc(C)cc1` (stereo partly shown) [Compound 248], the kinact/KI in assay [1] is 2.39e+06 M⁻¹ s⁻¹.

As to `CCC[C@@H](NC(=O)C1C(=O)C(CC)(CC)[C@@H]1Oc1ccc(C(=O)N2CCN(CC(C)C)CC2)cc1)c1ccc(C)cc1` (stereo partly shown) [Compound 249], the kinact/KI in assay [1] was 2.48e+06 M⁻¹ s⁻¹. For `CCC[C@@H](NC(=O)C1C(=O)C(CC)(CC)[C@@H]1Oc1ccc(C(=O)N2CCN(Cc3ccccc3)CC2)cc1)c1ccc(C)cc1` (stereo partly shown) [Compound 246], the kinact/KI in assay [1] came to 5.17e+06 M⁻¹ s⁻¹. `CCC[C@@H](NC(=O)C1C(=O)C(CC)(CC)[C@@H]1Oc1ccc(C(=O)N2CCN(c3ccc(F)cc3)CC2)cc1)c1ccc(C)cc1` (stereo partly shown) [Compound 243]: in assay [1], the kinact/KI was found to be 7.49e+06 M⁻¹ s⁻¹. Regarding `CCC[C@@H](NC(=O)C1C(=O)C(CC)(CC)[C@@H]1Oc1ccc(C(=O)N2CCN(CC)CC2)cc1)c1ccc(C)cc1` (stereo partly shown) [Compound 252], in assay [1], the kinact/KI is 2.32e+06 M⁻¹ s⁻¹. On the same count and under the same terms, as for `CCC[C@@H](NC(=O)C1C(=O)C(CC)(CC)[C@@H]1Oc1ccc(C(=O)N2CCN(CCC)CC2)cc1)c1ccc(C)cc1` (stereo partly shown) [Compound 253], the figure is 1.77e+06 M⁻¹ s⁻¹. In the case of `CCC[C@@H](NC(=O)C1C(=O)C(CC)(CC)[C@@H]1Oc1ccc(C(=O)N2CCN(C)CC2)cc1)c1ccc(C)cc1` (stereo partly shown) [Compound 242], the “growth rate of control cells” value in assay [2] is given as “did not reduce the growth rate”. Besides, in assay [3], the cell growth result was “complete restoration of cell growth” and the myeloid differentiation result is recorded as “increased myeloid differentiation”. Besides, the “inhibition of the NE activity” value in assay [4] is recorded as “more than 80%”. Also, in assay [1], the kinact/KI was determined as 1.7e+06 M⁻¹ s⁻¹.

On to `CCC[C@@H](NC(=O)C1C(=O)C(CC)(CC)[C@@H]1Oc1ccc(C(=O)N2CCN(c3ccccc3)CC2)cc1)c1ccc(C)cc1` (stereo partly shown) [Compound 245], for which the kinact/KI in assay [1] came to 5.28e+06 M⁻¹ s⁻¹. Turning to `CCC[C@@H](NC(=O)C1C(=O)C(CC)(CC)[C@@H]1Oc1ccc(C(=O)N2CCN(c3ncccn3)CC2)cc1)c1ccc(C)cc1` (stereo partly shown) [Compound 254], the kinact/KI in assay [1] amounted to 2.14e+06 M⁻¹ s⁻¹. On to `CCC[C@@H](NC(=O)C1C(=O)C(CC)(CC)[C@@H]1Oc1ccc(C(=O)N2CCN(c3cccc(Cl)c3)CC2)cc1)c1ccc(C)cc1` (stereo partly shown) [Compound 244], for which, in assay [1], the kinact/KI is 2.45e+06 M⁻¹ s⁻¹. On to `CCC[C@@H](NC(=O)C1C(=O)C(CC)(CC)[C@@H]1Oc1ccc(C(=O)N2CCNCC2)cc1)c1ccc(C)cc1` (stereo partly shown) [Compound 247], for which the kinact/KI in assay [1] amounted to 1.1e+06 M⁻¹ s⁻¹. With `CCC[C@@H](NC(=O)C1C(=O)C(CC)(CC)[C@@H]1Oc1ccc(C(=O)N2CCN(C3CC3)CC2)cc1)c1ccc(C)cc1` (stereo partly shown) [Compound 256], in assay [1], the kinact/KI was 3.59e+06 M⁻¹ s⁻¹.
